Source: US11767330B2, “Citrate salt, pharmaceutical compositions, and methods of making and using the same” (Foghorn Therapeutics Inc., priority 2021, dated 2023)
“Also recorded” adds a separate entry of the source.

Target: T1, BRD9 (Homo sapiens, UniProt Q9H8M2)
T1 sequence (Q9H8M2 1-597): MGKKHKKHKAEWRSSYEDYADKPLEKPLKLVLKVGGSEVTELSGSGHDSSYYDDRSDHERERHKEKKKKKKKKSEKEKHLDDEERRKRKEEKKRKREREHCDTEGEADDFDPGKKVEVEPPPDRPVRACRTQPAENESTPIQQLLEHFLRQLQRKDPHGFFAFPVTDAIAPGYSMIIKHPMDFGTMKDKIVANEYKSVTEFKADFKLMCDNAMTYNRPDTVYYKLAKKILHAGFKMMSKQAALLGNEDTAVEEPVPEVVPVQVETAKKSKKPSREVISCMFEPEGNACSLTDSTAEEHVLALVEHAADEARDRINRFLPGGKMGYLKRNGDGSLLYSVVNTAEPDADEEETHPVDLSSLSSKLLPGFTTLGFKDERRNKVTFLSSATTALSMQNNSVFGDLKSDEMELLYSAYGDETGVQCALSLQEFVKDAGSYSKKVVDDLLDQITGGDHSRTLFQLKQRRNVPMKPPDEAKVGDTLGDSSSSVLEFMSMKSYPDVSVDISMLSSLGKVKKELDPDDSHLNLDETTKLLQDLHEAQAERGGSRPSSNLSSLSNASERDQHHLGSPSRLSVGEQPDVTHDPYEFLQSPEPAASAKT
Experiment: BRD9 degradation in synovial sarcoma tumor in vivo, western blot (Example 12)
Set-up: Tumors were lysed with 1×RIPA lysis buffer; from tissue; host or cells: SYO-1 xenograft tumours in BALB/c Nude mice; species or system mice
Details: 1 mg/kg, i.p., 4 weeks; tumors 8, 72, 168 hours post last dose
Description: Method: Mice were treated with D1, 1 mg/kg, i.p. for 4 weeks. Mice were then euthanized, and tumors were collected at 8 hours, 72 hours, and 168 hours post last dose. Tumors were lysed with 1×RIPA lysis buffer (Boston BioProducts, BP-115D) with protease and phosphatase protein inhibitor (Roche Applied Science #04906837001 & 05892791001). Equal amounts of lysate (30 μg) were loaded in 4-12% Bis-Tris Midi Protein Gels in 1×MOPS buffer; samples ran at 120 V for 120 minutes. Protein was transferred to membrane with TransBlot at 250 mA for 150 minutes, and then membranes were blocked with Odyssey blocking buffer for 1 hour at room temperature. Membranes were hybridized overnight in cold room with primary antibodies. Images acquired using Li—COR imaging system (Li—COR Biotechnology, Lincoln, Nebr.).

SMILES: COc1cc(-c2cn(C)c(=O)c3cnc(N4CCC4)cc23)cc(OC)c1CN1CCC(CN2CCC3(CC2)CN(c2ccc4c(c2)C(=O)N(C2CCC(=O)NC2=O)C4)C3)CC1 (racemic) [Compound D1, 3-[6-(7-[[1-([4-[6-(azetidin-1-yl)-2-methyl-1-oxo-2,7-naphthyridin-4-yl]-2,6-dimethoxyphenyl]methyl)piperidin-4-yl]methyl]-2,7-diazaspiro[3.5]nonan-2-yl)-1-oxo-3H-isoindol-2-yl]piperidine-2,6-dione]
- BRD9 level in tumor (western blot): BRD9 inhibition; also recorded: complete degradation of BRD9 target up to 168 hours after dose
